Reference: US11124506B2, “Salts and crystal forms of diaza-benzofluoranthrene compounds” (HARBIN PHARMACEUTICAL GROUP CO., LTD. GENERAL …, priority 2016, dated 2021)

Biological target: T1, PDE1A (Homo sapiens, UniProt P54750)
T1 construct: purchased SignalChem
Assay: In vitro detection of phosphodiesterase (PDE), fluorescence polarization detection of AMP/GMP production
Format: biochemical
Conditions: human enzyme (SignalChem), cAMP or cGMP substrate, Ca2+-calmodulin cofactor; read-out: IC50 values measured by PDE1 detection: PDE1
Description: Experimental Example 1: The In Vitro Detection of Phosphodiesterase (PDE)
Principle of the Experiment:
The assay measures PDE1A enzyme activity based on fluorescence polarization detection of AMP/GMP production. The principle of the reaction is to replace the binding of AMP/GMP to its antibody by AlexaFluor 633 labeled AMP/GMP.
Reaction buffer: 10 mM Tris-HCl, pH=7.5, 5 mM magnesium chloride, 0.01% Brij 35, 1 mM DTT, and 1% DMSO;
Enzyme substrate: […] cAMP or cGMP (Ca^2+-calmodulin as a cofactor of PDE1A);
Transcreener® AMP2/GMP2 antibody;
AMP2/GMP2 AlexaFluor 633 marker.
Experimental Procedures and Methods:
1. Human enzyme to be tested (purchased from SignalChem) and the substrate were diluted with a freshly prepared reaction buffer.
2. An enzyme solution (concentration: 3 pM) was added to the wells of a reaction plate.
3. […]
7. The following devices were used for detection: EnVision (PerkinElmer), Cy5FP Ex FP 620, Em S-pol 688/P-pol 688, FP mirror D658fp/D688; fluorescence polarization was detected using Ex/Em 620/688.
Enzymatic activity corresponding to the FP signal was retrieved in an AMP/GMP standard curve using DMSO as a control in an Excel table. […] An analysis was performed using GraphPad Prism and IC50 values were calculated.

IC50: 1 to 20 µM
SMILES: CC[C@@]12C=C(c3nc(C)no3)n3c4c(c5ccccc53)CCN(CCC1)[C@H]42 [Compound 1]
